From ChEMBL document CHEMBL2401664, “De novo tyrosinase inhibitor: 4-(6,7-dihydro-5H-indeno[5,6-d]thiazol-2-yl)benzene-1,3-diol (MHY1556)” (Bioorg Med Chem Lett, 2013)

What was measured:
B16-F10 [1] = test: Inhibition of alphaMSH-induced melanin production in mouse B16F10 cells at 0.2 uM after 48 hrs by melanin content assay (reference value: 163.78 %); assay type: functional; details: B16-F10, 48 h
[2] = Cytotoxicity against mouse B16F10 cells assessed as cell viability at 2 uM after 48 hrs by MTT assay; assay type: cell-based, B16-F10; details: read-out: Activity
[3] = molecular target: T1, Tyrosinase (Agaricus bisporus) (UniProt O42713); test: Inhibition of mushroom tyrosinase using L-tyrosine as substrate assessed as amount of dopachrome produced at 0.5 uM after 30 mins by spectrophotometry
T1 sequence (whole entry): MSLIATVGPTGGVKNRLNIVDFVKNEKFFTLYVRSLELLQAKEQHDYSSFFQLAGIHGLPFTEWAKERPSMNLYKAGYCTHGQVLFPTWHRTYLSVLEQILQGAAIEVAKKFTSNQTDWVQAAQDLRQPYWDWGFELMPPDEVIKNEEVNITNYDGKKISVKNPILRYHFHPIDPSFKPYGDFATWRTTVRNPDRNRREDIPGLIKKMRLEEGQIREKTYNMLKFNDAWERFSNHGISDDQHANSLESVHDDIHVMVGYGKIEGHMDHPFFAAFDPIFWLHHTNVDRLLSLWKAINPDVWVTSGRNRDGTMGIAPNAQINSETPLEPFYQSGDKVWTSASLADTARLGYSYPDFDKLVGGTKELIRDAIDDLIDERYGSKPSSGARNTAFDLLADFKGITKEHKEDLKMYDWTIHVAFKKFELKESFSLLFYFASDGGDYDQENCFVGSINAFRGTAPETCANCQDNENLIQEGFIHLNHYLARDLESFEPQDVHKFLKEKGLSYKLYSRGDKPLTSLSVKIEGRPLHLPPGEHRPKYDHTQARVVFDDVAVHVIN

[4] = molecular target: T1, Tyrosinase (Agaricus bisporus); test: Inhibition of mushroom tyrosinase using L-tyrosine as substrate assessed as amount of dopachrome produced at 0.1 uM after 30 mins by spectrophotometry
B16-F10 [5] = test: Inhibition of alphaMSH-induced melanin production in mouse B16F10 cells at 0.05 uM after 48 hrs by melanin content assay (reference value: 163.78 %); assay type: functional; details: B16-F10, 48 h
[6] = Cytotoxicity against mouse B16F10 cells assessed as cell viability at 40 uM after 48 hrs by MTT assay; assay type: cell-based, B16-F10; details: read-out: Activity
B16-F10 [7] = test: Inhibition of alphaMSH-induced melanin production in mouse B16F10 cells at 2 uM after 48 hrs by melanin content assay (reference value: 163.78 %); assay type: functional; details: B16-F10, 48 h
B16-F10 [8] = test: Inhibition of alphaMSH-induced melanin production in mouse B16F10 cells at 0.1 uM after 48 hrs by melanin content assay (reference value: 163.78 %); assay type: functional; details: B16-F10, 48 h
Tyrosinase = molecular target: T2, Tyrosinase (Agaricus bisporus, UniProt O42713); test: Inhibition of mushroom tyrosinase using L-tyrosine as substrate assessed as amount of dopachrome produced after 30 mins by spectrophotometry
T2 sequence (O42713 whole entry): T1 sequence (whole entry)

[9] = molecular target: T3, Tyrosinase (Mus musculus) (UniProt P11344); test: Inhibition of tyrosinase in mouse B16F10 cells assessed as L-DOPA oxidation after 24 hrs by ELISA; assay type: cell-based; details: B16-F10
T3 sequence (whole entry): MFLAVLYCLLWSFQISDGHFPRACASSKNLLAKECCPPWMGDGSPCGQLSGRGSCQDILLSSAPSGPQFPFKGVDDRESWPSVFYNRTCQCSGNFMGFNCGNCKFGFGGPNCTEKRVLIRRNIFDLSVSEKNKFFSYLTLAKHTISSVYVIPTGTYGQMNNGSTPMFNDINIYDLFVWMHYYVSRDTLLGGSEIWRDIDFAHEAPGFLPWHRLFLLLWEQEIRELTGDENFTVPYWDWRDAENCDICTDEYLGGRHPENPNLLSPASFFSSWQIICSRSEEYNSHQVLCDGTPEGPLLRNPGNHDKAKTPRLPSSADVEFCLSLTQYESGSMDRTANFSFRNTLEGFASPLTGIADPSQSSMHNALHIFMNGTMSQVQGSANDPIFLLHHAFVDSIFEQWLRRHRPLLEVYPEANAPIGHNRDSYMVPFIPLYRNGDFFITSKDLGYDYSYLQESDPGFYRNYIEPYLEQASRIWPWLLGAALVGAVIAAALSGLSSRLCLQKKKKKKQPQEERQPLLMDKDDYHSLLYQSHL

[10] = Cytotoxicity against mouse B16F10 cells assessed as cell viability at 20 uM after 48 hrs by MTT assay; assay type: cell-based, B16-F10; details: read-out: Activity
[11] = Cytotoxicity against mouse B16F10 cells assessed as cell viability at 10 uM after 48 hrs by MTT assay; assay type: cell-based, B16-F10; details: read-out: Activity
[12] = molecular target: T3, Tyrosinase (Mus musculus); test: Inhibition of tyrosinase in mouse B16F10 cells assessed as L-DOPA oxidation at 0.2 uM after 24 hrs by ELISA (reference value: […] %); assay type: cell-based; details: B16-F10
[13] = molecular target: T3, Tyrosinase (Mus musculus); test: Inhibition of tyrosinase in mouse B16F10 cells assessed as L-DOPA oxidation at 0.1 uM after 24 hrs by ELISA (reference value: […] %); assay type: cell-based; details: B16-F10
[14] = molecular target: T1, Tyrosinase (Agaricus bisporus); test: Inhibition of mushroom tyrosinase using L-tyrosine as substrate assessed as amount of dopachrome produced at 2 uM after 30 mins by spectrophotometry
[15] = molecular target: T1, Tyrosinase (Agaricus bisporus); test: Inhibition of mushroom tyrosinase using L-tyrosine as substrate assessed as amount of dopachrome produced at 1 uM after 30 mins by spectrophotometry
[16] = Cytotoxicity against mouse B16F10 cells assessed as cell viability at 5 uM after 48 hrs by MTT assay; assay type: cell-based, B16-F10; details: read-out: Activity
[17] = molecular target: T1, Tyrosinase (Agaricus bisporus); test: Inhibition of mushroom tyrosinase using L-tyrosine as substrate assessed as amount of dopachrome produced at 0.8 uM after 30 mins by spectrophotometry
B16-F10 [18] = test: Inhibition of alphaMSH-induced melanin production in mouse B16F10 cells after 48 hrs by melanin content assay; assay type: functional, cell-based

inhibition [3]: 56.5%
inhibition [4]: 22.2%
IC50 (Tyrosinase): 0.5 µM
inhibition [9]: Dose-dependent effect
inhibition [12]: 109%
inhibition [13]: 133%
inhibition [14]: 83.5%
inhibition [15]: 73.6%
inhibition [17]: 68.3%
Compound: Oc1ccc(-c2nc3cc4c(cc3s2)CCC4)c(O)c1
inhibition at 0.2 µM (B16-F10 [1]): 94.5%
viability at 48 h, 2 µM [2]: 97.9%
inhibition at 0.05 µM (B16-F10 [5]): 121%
viability at 48 h, 40 µM [6]: 88.4%
inhibition at 2 µM (B16-F10 [7]): 88.8%
inhibition at 0.1 µM (B16-F10 [8]): 101%
viability at 48 h, 20 µM [10]: 95.6%
viability at 48 h, 10 µM [11]: 98.1%
viability at 48 h, 5 µM [16]: 95%
inhibition (B16-F10 [18]): Dose-dependent effect
